From patent publication US4963553A, “4-[(substituted) alkylcarbonyl]-4,5-dihydro- and -4,5,6,7-tetrahydro-7-[(substituted)phenyl]pyrazolo[1,5-a]pyrimidines” (American Cyanamid Co., priority 1988, dated 1990)
Where a name gives a salt, the structure may show the parent alone.

system: mice (hypoxic environment); assay: Hypoxic survival test; assay type: in vivo, mouse (Royal Hart); conditions: 100 mg/kg, intraperitoneal, 10% oxygen, 5 minutes
Description: The hypoxic survival test is a useful in vivo test for measuring the effectiveness of central nervous system-acting drugs in enhancing survival in an hypoxic environment relative to the known parasympathomimetic agent physostigmine.
Drugs are tested by intraperitoneal injection of groups of mice 30 minutes prior to placing them in an hypoxic environment and measuring survival. The rationale of this test is that drugs which enhance survival under hypoxic conditions without concomitant depression or sedative side effects, do so by enhancing brain metabolism, i.e., by improving energy supply relative to demand and so preserving normal brain function under conditions of reduced energy metabolism. Considering the dependence of the brain on a constant supply of energy, drugs which have this property may have many far-reaching therapeutic indications, including aiding recovery from stroke and closed head injury and reducing the deleterious effects of age-related central nervous system deficits.
In the hypoxic survival test, groups of 20 Royal Hart mice (6 weeks of age) were injected intraperitoneally with a test compound in saline at various doses ranging from 1 to 200 mg/kg, 30 minutes prior to placing them in an hypoxic mixture (10% oxygen, 90% […]) and measuring survival after 5 minutes.
A control group of 20 mice was injected intraperitoneally with saline (0.01 ml/g of body weight) and processed as described above.
Another group of 20 mice was injected intraperitoneally with 0.125 mg/kg of physostigmine in saline and processed as described above.

SMILES	% Survivors [%]
N#Cc1cnn2c1N(C(=O)CN1CCN(Cc3cccc(C(F)(F)F)c3)CC1)CC=C2c1cccc(C(F)(F)F)c1 [Example 128, 4,5-Dihydro-4-[[4-[(3-trifluoromethylphenyl)methyl]-1-piperazinyl]acetyl]-7-[3-(trifluoromethyl)phenyl]pyrazolo[1,5-a]pyrimidine-3-carbonitrile]	40
Cl.Cl.N#Cc1cnn2c1N(C(=O)CN1CCN(CCc3ccccc3)CC1)CC=C2c1cccc(C(F)(F)F)c1 [Example 132, 4,5-Dihydro-4-[[4-(2-phenylethyl)-1-piperazinyl)acetyl]-7-[3-(trifluoromethyl)phenyl]pyrazolo[1,5-a]pyrimidine-3-carbonitrile, dihydrochloride]	60

same assay, conditions: 100 mg/kg, intraperitoneal, 10% oxygen, 5 minutes; listed as 4,5-Dihydro-4-[[4-[(3-trifluoromethyl-phenyl)methyl]-1-piperazinyl]acetyl]-7-[3-, dihydrochloride

SMILES	% Survivors [%]
N#Cc1cnn2c1N(C(=O)CN1CCN(Cc3cccc(C(F)(F)F)c3)CC1)CC=C2c1cccc(C(F)(F)F)c1 [Example 145, 4,5-Dihydro-7-[3-(trifluoromethyl)phenyl-4-[[4-[[3-(trifluoromethyl)phenyl]methyl]-1-piperazinyl]acetyl]pyrazolo[1,5-a]pyrimidine-3-carbonitrile, dihydrochloride]	85

same assay, conditions: Mus musculus, ip, 5 min, 10 mg/kg, intraperitoneal, 10% oxygen, 5 minutes; read-out: % Survivors

SMILES	responders at 10 mg/kg [%]
COc1cccc(CN2CCN(CC(=O)N3CC=C(c4ccccc4)n4ncc(C#N)c43)CC2)c1 [Example 150, 4,5-Dihydro-4-[[4-[(3-methoxyphenyl)methyl]-1-piperazinyl]acetyl]-7-phenylpyrazolo[1,5-a]pyrimidine-3-carbonitrile, dihydrochloride]	45
N#Cc1cnn2c1N(C(=O)CN1CCN(Cc3ccccc3C(F)(F)F)CC1)CC=C2c1cccc(C(F)(F)F)c1 [Example 152, 4,5-Dihydro-7-[3-(trifluoromethyl)phenyl]-4-[[4-[[2-(trifluoromethyl)phenyl]methyl]-1-piperazinyl]acetyl]pyrazolo[1,5-]pyrimidine-3-carbonitrile dihydrochloride]	30
O=C(CN1CCN(Cc2ccccc2)CC1)N1CC=C(c2cccc(C(F)(F)F)c2)n2ncc(Br)c21 [Example 154, 3-Bromo-4,5-dihydro-4-[[4-(phenylmethyl)-1-piperazinyl]acetyl]-7-[3-(trifluoromethyl)phenyl]pyrazolo[1,5-a]pyrimidine, dihydrochloride]	20

same assay, conditions: Mus musculus, ip, 5 min, 50 mg/kg, intraperitoneal, 10% oxygen, 5 minutes; read-out: % Survivors

SMILES	responders at 50 mg/kg [%]
CC1=C(c2cccc(Cl)c2)n2ncc(C#N)c2N(C(=O)CN2CCN(Cc3cccc(Cl)c3)CC2)C1 [Example 131, 7-(3-Chloroohenyl)-4-[[4-[(3-Chlorophenyl)methyl-1-piperazinyl]acetyl]4,5-dihydro-6-methylpyrazolo[1,5-a]pyrimidine-3-carbonitrile, dihydrochloride]	73

same assay, conditions: Mus musculus, ip, 5 min, 100 mg/kg, intraperitoneal, 10% oxygen, 5 minutes; read-out: % Survivors

SMILES	responders at 100 mg/kg [%]
CC1=C(c2cccc(Cl)c2)n2ncc(C#N)c2N(C(=O)CN2CCN(Cc3cccc(Cl)c3)CC2)C1 [Example 131, 7-(3-Chloroohenyl)-4-[[4-[(3-Chlorophenyl)methyl-1-piperazinyl]acetyl]4,5-dihydro-6-methylpyrazolo[1,5-a]pyrimidine-3-carbonitrile, dihydrochloride]	77
COc1cccc(CN2CCN(CC(=O)N3CC(C)=C(c4cccc(Cl)c4)n4ncc(C#N)c43)CC2)c1 [Example 143, 7-(3-Chlorophenyl)-4,5-dihydro-4-[[4-[(3-methoxyphenyl)methyl]-1-piperazinyl]acetyl]-6-methylpyrazolo[1,5-a]pyrimidine-3-carbonitrile, dihydrochloride]	65
COc1cccc(CN2CCN(CC(=O)N3CC=C(c4ccccc4)n4ncc(C#N)c43)CC2)c1 [Example 148, 4,5-Dihydro-4-[[4-[(3-methoxyphenyl)methyl]-1-piperazinyl]acetyl]-7-phenylpyrazolo[1,5-a]pyrimidine-3-carbonitrile]	55
Cc1cccc(C2=CCN(C(=O)CN3CCN(Cc4ccccc4)CC3)c3c(C#N)cnn32)c1 [Example 149, 4,5-Dihydro-7-(3-methylphenyl)-4-[[4-(phenylmethyl)-1-piperazinyl]acetyl]pyrazolo[1,5-a]pyrimidine-3-carbonitrile, hydrochloride]	55
N#Cc1cnn2c1N(C(=O)CN1CCN(Cc3ccccc3C(F)(F)F)CC1)CC=C2c1cccc(C(F)(F)F)c1 [Example 151, 4,5-Dihydro-7-[3-(trifluoromethyl)phenyl]-4-[[4-[[2-(trifluoromethyl)phenyl]methyl]-1-piperazinyl]acetyl]pyrazolo[1,5-a]pyrimidine-3-carbonitrile]	20
N#Cc1cnn2c1N(C(=O)CN1CCN(c3ccc(F)cc3)CC1)CC=C2c1cccc(C(F)(F)F)c1 [Example 153, 4-[[4-(4-Fluorophenyl)-1-piperazinyl]acetyl]4,5-dihydro-7-[3-(trifluoromethyl)phenyl]pyrazolo[1,5-a]pyrimidine-3-carbonitrile, monohydrochloride]	35
O=C(CN1CCN(Cc2ccccc2)CC1)N1CC=C(c2cccc(C(F)(F)F)c2)n2ncc(Cl)c21 [Example 155, 3-Chloro-4,5-dihydro-4-[[4-(phenylmethyl-1-piperazinyl]acetyl]-7-[3-trifluoromethyl)phenylpyrazolo[1,5-a]pyrimidine, dihydrochloride]	25
N#Cc1cnn2c1N(C(=O)CN1CCN(Cc3ccccc3F)CC1)CC=C2c1cccc(C(F)(F)F)c1 [Example 156, 4-[[4-[(2-Fluorophenyl)methyl]-1-piperazinyl]acetyl]4,5-dihydro-7-[3-(trifluoromethyl)phenyl]pyrazolo[1,5-a]pyrimidine-3-carbonitrile]	55
CC1=C(c2cccc(Cl)c2)n2ncc(C#N)c2N(C(=O)CN2CCN(Cc3ccccc3F)CC2)C1 [Example 157, 7-(3-Chlorophenyl)-4-[[4-[(2-fluorophenyl)methyl]-1-piperazinyl]acetyl]-4,5-dihydro-6-methylpyrazolo[1,5-a]pyrimidine-3-carbonitrile, dihydrochloride]	45
N#Cc1cnn2c1N(C(=O)CN1CCN(C(=O)OCc3ccccc3)CC1)CC=C2c1cccc(C(F)(F)F)c1 [Example 158, 4-[2-[3-Cyano-7-[3-(trifluoromethyl)phenyl]pyrazolo[1,5-a]pyrimidin-4(5H)-yl]-2-oxoethyl]-1-piperazinecarboxylic acid, phenylmethyl ester]	55
CC1=C(c2cccc(C(F)(F)F)c2)n2ncc(C#N)c2N(C(=O)CN2CCN(Cc3cccc(C(F)(F)F)c3)CC2)C1 [Example 160, 4,5-Dihydro-6-methyl-7-[3-(trifluoromethyl)phenyl]-4-[[4-[[3-(trifluoromethyl)phenyl]methyl]-1-piperazinyl]acetyl]pyrazolo[1,5-a]pyrimidine-3-dihydrochloride]	40

same assay, conditions: Mus musculus, ip, 5 min, 200 mg/kg, intraperitoneal, 10% oxygen, 5 minutes; read-out: % Survivors

SMILES	responders at 200 mg/kg [%]
CC1=C(c2cccc(Cl)c2)n2ncc(C#N)c2N(C(=O)CN2CCN(Cc3cccc(C(F)(F)F)c3)CC2)C1 [Example 127, 7-(3-Chlorophenyl)-4,5-dihydro-6-methyl-4-[[4-[[3-(trifluoromethyl)phenyl]methyl]-1-piperazinyl]acetyl]pyrazolo[1,5-a]pyrimidine-3-carbonitrile]	73
CCC1=C(c2cccc(C(F)(F)F)c2)n2ncc(C#N)c2N(C(=O)CN2CCN(Cc3ccccc3)CC2)C1 [Example 140, 4,5-Dihydro-6-ethyl-4[[4-(phenylmethyl)-1-piperazinyl]acetyl]7-[3-(trifluoromethyl)phenyl]pyrazolo[1,5-a]pyrimidine-3-carbonitrile]	42
CC1=C(c2ccc(Cl)cc2)n2ncc(C#N)c2N(C(=O)CN2CCN(Cc3cccc(C(F)(F)F)c3)CC2)C1 [Example 142, 7-(4-Chlorophenyl)-4,5-dihydro-6-methyl-4-[[4-[[3-(trifluoromethyl)phenyl]methyl-1-piperazinyl]acetyl]pyrazolo[1,5-a]pyrimidine-3-carbonitrile, dihydrochloride]	37.5
